One assay relates to S. aureus on pig skin. The assay can be described thus: antimicrobial activity against S. aureus on pig skin (swab, CFU counting, log kill). As to conditions: Example 3; 2 hours after application; inoculum 7.6 (7.62 = complete kill). The class given is cell-based, Staphylococcus aureus (Oxford). As to the method: Staphylococcus aureus (Oxford); Gram positive; Reference strain.
Bacterial cultures were prepared by inoculation of 10 ml of nutrient broth with a single colony of bacteria on blood agar or TSA and incubated at 37° C. with continuous shaking at 100 rpm for 16 to 24 hours. The overnight cultures were used for experimental tests.
For CFU counting, the bacterial suspensions were diluted using sterile deionized water or phosphate-buffered saline (PBS, Sigma Aldrich Ltd, Poole, Dorset, UK). 100 μl of 10-fold serial dilutions of bacteria culture were plated on one third of TSA plates in triplicate and incubated 24 to 48 hours at 37° C. The number of cells presented on the plates was counted using an AcoLyte colony counter (Synbiosis) and results were expressed as Colony Forming Units/ml (CFU/ml).
The efficacy of each of the above formulations F017A, F017B and F019 was assessed against S. aureus on pig skin. The S. aureus culture was grown overnight according to methods known in the art. The overnight culture was then spread on pig skin: 40 μl of culture was used for 2 cm^3 of pig skin. Each of the formulations F017A, F017B and F019 was then applied to the pig skin.
After 2 hours and 5 hours from application of each formulation, the pig skin was swabbed and bacteria on the swab were processed for CFU counting. The results for F017A, F017B and F019 against a control experiment (where no triple combination was applied to the pig skin) and against commercially available products Bactroban® cream (mupirocin) and Naseptin® (chlorhexidine and neomycin) are shown in FIG. 1.
The efficacy of each of the above formulations F017A, F017B and F019 was again assessed against S. aureus on pig skin. The S. aureus culture was grown overnight according to methods known in the art. The overnight culture was then spread on pig skin: 40 μl of culture was used for 2 cm^3 of pig skin. […]
The efficacy of each of the above formulations F017A, F022A, F022B, F022C, F022D, F022E, F022F, and F022G was assessed against S. aureus on pig skin. […]

Assay [1] has as its system clinically latent microorganisms. The assay can be described thus: screening for ability to kill clinically latent microorganisms (WO2000028074 method). Format: cell-based. From the text:
International Patent Application, Publication Number WO2000028074 describes a method of screening compounds to determine their ability to kill clinically latent microorganisms. […] This observation has necessitated the development of novel antimicrobials which may be used to kill clinically latent microorganisms.
By way of example, WO2000028074 describes a suitable method of screening compounds to determine their ability to kill clinically latent microorganisms. A typical method may include the following steps: • (1) growing a bacterial culture to stationary phase; • (2) treating the stationary phase culture with one or more antimicrobial agents at a concentration and or time sufficient to kill growing bacteria, thereby selecting a phenotypically resistant sub-population; • (3) incubating a sample of the phenotypically resistant subpopulation with one or more test compounds or agents; and • (4) assessing any antimicrobial effects against the phenotypically resistant subpopulation.

With `Cc1nc2ccc(Oc3ccccc3)cc2c2c1CCN2CCc1ccccc1` [HT61, 4-methyl-8-phenoxy-1-(2-phenylethyl)-2,3-dihydro-1H-pyrrolo[3,2-c]quinoline], the “Log Kill 2 h” value in the assay with S. aureus on pig skin is given as 1.87.

`C/C(=C\C(=O)OCCCCCCCCC(=O)O)C[C@@H]1OC[C@H](C[C@@H]2O[C@H]2[C@@H](C)[C@H](C)O)[C@@H](O)[C@H]1O` [mupirocin]: in assay [1], the “activity against clinically latent microorganisms” value is “little or no activity”. Besides, in the assay with S. aureus on pig skin, the “Log Kill 2 h” value is 0.49.

With neomycin, the “activity against clinically latent microorganisms” value in assay [1] was “little or no activity”. Besides, in the assay with S. aureus on pig skin, the “Log Kill 2 h” value amounted to 4.56.

The values above are taken from patent US10736888B2, “Triple combination” (HELPERBY THERAPEUTICS LIMITED, priority 2015, dated 2020).
